Assay results taken from patent US6613937B2, “S-nitroso- and S-nitro-N-acyl-L-cysteine ester derivatives as pharmalogically active agents and pharmaceutical compositions containing said compounds” (priority 1999, dated 2003).

Columns and labels:
[1] = in vitro and in vivo, humans; cited from earlier work
[2] = humans; cited from earlier work
human Corpus Cavernosum = test: Relaxation of the human Corpus Cavernosum in vitro; details: FIG. 1a
Source text: A. Relaxation of the Human Corpus Cavernosum in vitro by Means of S-nitroso-N-acetylcysteine ethyl ester, S-nitroso-N-(O-acetylsalicyl)cysteine ethyl ester and Their Metabolites
a. Relaxation of the human Corpus Cavernosum in vitro by S-nitroso-N-acetylcysteine-ethylester (SNACET), S-nitroso-N-(O-acetylsalicyl)cysteine ethyl ester (ASS-SNCET) and their metabolites SNCET and SNAC.

human blood platelets = test: Inhibition of collagen-induced aggregation of washed human blood platelets in vitro; assay type: cell-based; details: Platelet, collagen-induced (2 μg/ml)
Description: Inhibition of the Aggregation of Human Blood Platelets in vitro by Means of S-nitroso-N-acetylcysteine ethyl ester (SNACET) and S-nitroso-N-(O-acetylsalicyl)cysteine ethyl ester (ASS-SNCET)
(§1) Collagen-induced (2 μg/ml) aggregation and thromboxane synthesis in human blood platelets which have been washed are inhibited by SNACET in a concentration-dependent manner (FIG. 4a). The IC50s for the inhibition of the platelet aggregation and the thromboxane synthesis by SNACET are determined at 1 and 0.5 μM. Collagen-induced (2 μg/ml) aggregation of human blood platelets that have been washed is inhibited by ASS-SNCET in a concentration-dependent manner (FIG. 4b). The IC50 for the inhibition of the platelet aggregation by ASS-SNCET is determined at 2 μM (FIG. 4b).
(§2) a. Inhibition of the collagen-induced (2 μg/ml) aggregation of human blood platelets that have been washed and the thromboxane synthesis in the platelets in vitro by S-nitroso-N-acetylcysteine ethyl ester (SNACET).
b. Inhibition of the collagen-induced (2 μg/ml) aggregation of human blood platelets in vitro that have been washed by S-nitroso-N-(O-acetylsalicyl)cysteine ethyl ester (ASS-SNCET). The values are average values from analyses with platelets of four healthy subjects.

[3] = system: thromboxane synthesis in human blood platelets; test: Inhibition of collagen-induced thromboxane synthesis in washed human blood platelets in vitro; assay type: cell-based; details: Platelet, collagen-induced (2 μg/ml)
Description: as §1, §2

Sprague Dawley rat = test: Hypotensive effect in vivo in the rat (i.v. infusion, average artery blood pressure); details: anaesthetised male Sprague Dawley rat, FIG. 3
Source text: Hypotensive Effect of SNACET in vivo in the Rat
S-nitroso-N-acetylcysteine-ethylester (SNACET) is applied i.v. to a male, anaesthetised Sprague Dawley rat which has a weight of 400 g. Before and after the infusion, the average artery blood pressure is taken continuously.
Hypotensive effect of SNACET in vivo in the rat. SNACET was applied i.v. with the infusion rates stated.

human arteria mammaria = test: Relaxation of the human arteria mammaria in vitro; details: FIG. 1b
Source text: B. Relaxation of the Human Arteria Mammaria in vitro by S-nitroso-N-acetylcysteine ethyl ester and S-nitro-N-acetylcysteine ethyl ester
b. Relaxation of the human arteria mammaria in vitro by S-nitroso-N-acetylxysteine ethyl ester (SNACET) and S-nitro-N-acetylcysteine ethyl ester (SNO2ACET).

[4] = Penetration by human Tunica albuginea in vitro in a Franz' cell; assay type: in vitro ADME; details: SNACET in dimethyl sulphoxide, FIG. 2
Description: Penetration of S-nitroso-N-acetylsysteine ethyl ester (SNACET) by Human Tunica albuginea in vitro
Part of Tunica albuginea which has just been prepared is fixed in a Franz' cell. The active surface is 1.77 cm^2. The acceptor phase (10 ml) consists of Hank's buffer (pH 7.4), human albumin (30 g/l), penicillin G (100 units) and streptomycin (10 μg) and is stirred with a magnetic stirrer at a constant rotation speed. The penetration is started by application of solutions of SNACET in dimethyl sulphoxide at various concentrations (0.25 ml) on the part of the skin. At various points in time, samples are taken from the acceptor phase and the concentration of the sum from SNACET and its metabolites is determined. In the acceptor phase, unmodified SNACET and other metabolites including nitrite are detected. […] The penetration rate and the amount of the penetrated SNACET and their metabolites in the acceptor phase depend on the amount of SNACET applied onto the Tunica albuginea. The lag time is approximately 20 min. In the linear region, the penetration rates are 1.0, 2.5 or 5.0 μmol SNACET/hour.
Penetration of S-nitroso-N-acetylcysteine ethyl ester (SNACET) by human Tunica albuginea in vitro in a Franz' cell. Three different amounts dissolved in dimethyl sulphoxide (250 μl each) were applied (see Legend).

[5] = In vivo metabolism of orally applied 15N-marked SNACET in the rat (urine, GC-MS); details: oral 17.5 mg/kg
Description: In vivo Metabolism of Orally Applied ^15N-marked S-nitroso-N-acetylcysteine ethyl ester (^15N-SNACET) in the Rat
A male Sprague Dawley rat weighing 480 g is orally given 17.5 mg of ^15N-marked S-nitroso-N-acetylcysteine ethyl ester (^15N-SNACET) per kg body weight, dissolved in 1 ml of a 10% (w/v) glucose solution in drinking water. Before and up to 24 hours after application, urine is collected and the ^15N-concentration of nitrate, nitrite and S-nitroso metabolites of ^15N-SNACET is determined by means of GC-MS.
Metabolism of orally applied ^15N-marked S-nitroso-N-acetylcysteine-ethylester (17.5 mg/kg body weight) in a rat. ^15N-concentration of nitrate, nitrite and for the sum of ^15N-marked S-nitroso-N-acetylcysteine ethyl ester and its metabolites collected in the urine before and up to 24 hours after the application.

[6] = in vivo in an animal; cited from earlier work

Molecule: N[C@@H](CCC(=O)N[C@@H](CSN=O)C(=O)NCC(=O)O)C(=O)O [S-nitroso glutathion, S-nitroso-L-glutathion]
- Anti-hypertensive and anti-aggregatory effect [1]: have an anti-hypertensive and an anti-aggregatory effect in humans
- Rate of embolism [2]: reduces the rate of embolism in humans

Molecule: CC(=O)N[C@@H](CSN=O)C(=O)O [SNAC, S-nitroso-N-acetylcysteine]
- Relaxation of human Corpus Cavernosum (human Corpus Cavernosum): relax human Corpus Cavernosum in vitro in a concentration-dependent manner

Molecule: CCOC(=O)[C@H](CSN=O)NC(C)=O [SNACET, S-nitroso-N-acetylcysteine ethyl ester]
- IC50 (human blood platelets): 1000 nM
- IC50 [3]: 500 nM
- Average artery blood pressure (Sprague Dawley rat): the average artery blood pressure decreases in dependence on the infusion rate
- Relaxation of human Corpus Cavernosum (human Corpus Cavernosum): relax human Corpus Cavernosum in vitro in a concentration-dependent manner
- Relaxation of human arteria mammaria (human arteria mammaria): relax human arteria mammaria in vitro in a concentration-dependent manner
- Penetration of the Tunica albuginea [4]: penetrates the Tunica albuginea

Molecule: CCOC(=O)[C@@H](N)CSN=O [SNCET, S-nitroso-cysteine ethyl ester]
- Relaxation of human Corpus Cavernosum (human Corpus Cavernosum): relax human Corpus Cavernosum in vitro in a concentration-dependent manner

Molecule: CCOC(=O)[C@H](CS[N+](=O)[O-])NC(C)=O [SNO2-ACET, S-nitro-N-acetylcysteine ethyl ester]
- Relaxation of human arteria mammaria (human arteria mammaria): relax human arteria mammaria in vitro in a concentration-dependent manner

Molecule: CCOC(=O)[C@H](CS[15N]=O)NC(C)=O [^15N-SNACET, ^15N-marked S-nitroso-N-acetylcysteine ethyl ester]
- Time of the highest 15N-concentration in urine [5]: within the first two hours
- 15N-concentration in the urine 24 hours after the administration ([5]; 24 hours): insignificantly higher than the natural occurrence of ^15N
- Main metabolite in urine ([5]; urine up to 24 hours): ^15N-nitrate
- Secretion of unchanged compound and S-nitroso metabolites into the urine ([5]; urine up to 24 hours): neither ^15N-SNACET no other S-[^15N]nitroso-containing metabolites are secreted into the urine

Molecule: S-nitroso-N-acetyl penicillamines [SNAP]
- Development of tolerance [6]: show no development of tolerance
